# Source: the kinase profiling compilation of Christmann-Franck et al. (2016)
# Experiments:
# Test in all cases: KINOMEscan competition binding
# Details in all cases: compound 10.0 µM
# PAK3 (human) = PAK3 (human) (UniProt O75914)
# ANKK1 (human) = ANKK1 (human) (UniProt Q8NFD2)
# [1] = target: JAK1 JH1 catalytic (human) (UniProt P23458)
# RPS6KA3 KD1 (human) = RPS6KA3 KD1 (human) (UniProt P51812)
# KDR (human) = KDR (human) (UniProt P35968)
# PRKAA2 (human) = PRKAA2 (human) (UniProt P54646)
# MAPK4 (human) = MAPK4 (human) (UniProt P31152)
# PRKACA (human) = PRKACA (human) (UniProt P17612)
# EIF2AK2 (human) = EIF2AK2 (human) (UniProt P19525)
# CDC2L2 (human) = CDC2L2 (human) (UniProt Q9UQ88)
# MST4 (human) = MST4 (human) (UniProt Q9P289)
# PDGFRA (human) = PDGFRA (human) (UniProt P16234)
# NEK9 (human) = NEK9 (human) (UniProt Q8TD19)
# MET (human) = MET (human) (UniProt P08581)
# INSRR (human) = INSRR (human) (UniProt P14616)
# TNK2 (human) = TNK2 (human) (UniProt Q07912)
# MAP3K12 (human) = MAP3K12 (human) (UniProt Q12852)
# ABL2 (human) = ABL2 (human) (UniProt P42684)
# SLK (human) = SLK (human) (UniProt Q9H2G2)
# DCLK1 (human) = DCLK1 (human) (UniProt O15075)
# SIK1 (human) = SIK1 (human) (UniProt P57059)
# ROCK2 (human) = ROCK2 (human) (UniProt O75116)
# NUAK2 (human) = NUAK2 (human) (UniProt Q9H093)
# PRKCD (human) = PRKCD (human) (UniProt Q05655)
# NEK1 (human) = NEK1 (human) (UniProt Q96PY6)
# GSK3B (human) = GSK3B (human) (UniProt P49841)
# MAPK3 (human) = MAPK3 (human) (UniProt P27361)
# [2] = test system: RET (human), P07949 [M918T]
# MLTK (human) = MLTK (human) (UniProt Q9NYL2)
# EPHA8 (human) = EPHA8 (human) (UniProt P29322)
# CDK11A (human) = CDK11A (human) (UniProt Q9UQ88)
# ADCK3 (human) = ADCK3 (human) (UniProt Q8NI60)
# EPHA6 (human) = EPHA6 (human) (UniProt Q9UF33)
# CSF1R (human) = CSF1R (human) (UniProt P07333)
# FGFR3 (human) = FGFR3 (human) (UniProt P22607)
# ULK3 (human) = ULK3 (human) (UniProt Q6PHR2)
# LYN (human) = LYN (human) (UniProt P07948)
# PAK1 (human) = PAK1 (human) (UniProt Q13153)
# YES1 (human) = YES1 (human) (UniProt P07947)
# FGFR4 (human) = FGFR4 (human) (UniProt P22455)
# PLK3 (human) = PLK3 (human) (UniProt Q9H4B4)
# MAPK12 (human) = MAPK12 (human) (UniProt P53778)
# Chain of PAK3 (human) (O75914 whole entry, looked up): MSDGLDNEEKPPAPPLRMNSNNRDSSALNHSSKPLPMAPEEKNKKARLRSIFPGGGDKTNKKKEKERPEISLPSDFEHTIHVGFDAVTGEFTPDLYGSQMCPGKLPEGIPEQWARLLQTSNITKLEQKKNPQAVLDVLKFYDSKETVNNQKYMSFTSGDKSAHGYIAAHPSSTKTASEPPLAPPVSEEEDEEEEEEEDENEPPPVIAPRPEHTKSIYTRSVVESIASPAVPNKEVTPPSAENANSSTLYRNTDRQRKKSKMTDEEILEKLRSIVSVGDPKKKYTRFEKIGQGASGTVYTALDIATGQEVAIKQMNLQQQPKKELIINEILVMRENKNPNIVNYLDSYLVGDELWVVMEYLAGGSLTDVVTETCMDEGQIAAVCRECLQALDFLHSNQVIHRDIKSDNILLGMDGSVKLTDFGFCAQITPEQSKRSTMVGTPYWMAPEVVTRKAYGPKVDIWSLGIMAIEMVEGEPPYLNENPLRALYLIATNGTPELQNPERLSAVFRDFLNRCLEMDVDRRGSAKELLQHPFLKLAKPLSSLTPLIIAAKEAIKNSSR
# Chain of NEK1 (human) (Q96PY6 whole entry, looked up): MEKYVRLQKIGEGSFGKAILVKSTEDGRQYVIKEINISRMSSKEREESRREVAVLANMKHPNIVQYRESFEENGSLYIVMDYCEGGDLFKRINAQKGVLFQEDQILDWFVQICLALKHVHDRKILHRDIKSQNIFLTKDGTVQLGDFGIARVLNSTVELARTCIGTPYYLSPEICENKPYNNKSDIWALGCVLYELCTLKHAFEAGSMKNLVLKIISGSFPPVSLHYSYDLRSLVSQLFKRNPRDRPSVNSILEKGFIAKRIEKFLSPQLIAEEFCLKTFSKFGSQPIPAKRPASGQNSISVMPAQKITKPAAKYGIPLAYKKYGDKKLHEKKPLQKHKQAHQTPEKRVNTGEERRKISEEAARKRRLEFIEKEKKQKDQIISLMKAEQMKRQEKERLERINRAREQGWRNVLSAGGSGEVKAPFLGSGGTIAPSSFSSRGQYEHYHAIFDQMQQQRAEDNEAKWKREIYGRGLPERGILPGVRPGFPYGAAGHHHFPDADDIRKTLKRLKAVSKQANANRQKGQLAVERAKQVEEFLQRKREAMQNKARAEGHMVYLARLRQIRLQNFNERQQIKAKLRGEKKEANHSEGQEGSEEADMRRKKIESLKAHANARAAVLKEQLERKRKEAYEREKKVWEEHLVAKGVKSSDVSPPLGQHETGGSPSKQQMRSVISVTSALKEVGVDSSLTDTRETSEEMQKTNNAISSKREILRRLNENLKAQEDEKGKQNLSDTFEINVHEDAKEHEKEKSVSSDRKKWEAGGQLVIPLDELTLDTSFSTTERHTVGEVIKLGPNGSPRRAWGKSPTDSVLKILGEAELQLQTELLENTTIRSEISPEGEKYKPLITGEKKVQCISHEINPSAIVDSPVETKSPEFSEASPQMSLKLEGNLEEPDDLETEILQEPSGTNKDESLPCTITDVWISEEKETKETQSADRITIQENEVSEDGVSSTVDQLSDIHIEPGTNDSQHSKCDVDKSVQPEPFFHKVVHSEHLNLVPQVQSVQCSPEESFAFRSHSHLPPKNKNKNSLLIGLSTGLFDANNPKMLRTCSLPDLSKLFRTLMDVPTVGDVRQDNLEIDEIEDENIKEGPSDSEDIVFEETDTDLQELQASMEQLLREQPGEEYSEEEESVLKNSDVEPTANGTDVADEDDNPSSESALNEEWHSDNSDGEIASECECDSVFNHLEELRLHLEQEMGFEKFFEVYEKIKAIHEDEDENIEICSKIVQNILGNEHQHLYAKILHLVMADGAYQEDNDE
# Chain of FGFR3 (human) (P22607 whole entry, looked up): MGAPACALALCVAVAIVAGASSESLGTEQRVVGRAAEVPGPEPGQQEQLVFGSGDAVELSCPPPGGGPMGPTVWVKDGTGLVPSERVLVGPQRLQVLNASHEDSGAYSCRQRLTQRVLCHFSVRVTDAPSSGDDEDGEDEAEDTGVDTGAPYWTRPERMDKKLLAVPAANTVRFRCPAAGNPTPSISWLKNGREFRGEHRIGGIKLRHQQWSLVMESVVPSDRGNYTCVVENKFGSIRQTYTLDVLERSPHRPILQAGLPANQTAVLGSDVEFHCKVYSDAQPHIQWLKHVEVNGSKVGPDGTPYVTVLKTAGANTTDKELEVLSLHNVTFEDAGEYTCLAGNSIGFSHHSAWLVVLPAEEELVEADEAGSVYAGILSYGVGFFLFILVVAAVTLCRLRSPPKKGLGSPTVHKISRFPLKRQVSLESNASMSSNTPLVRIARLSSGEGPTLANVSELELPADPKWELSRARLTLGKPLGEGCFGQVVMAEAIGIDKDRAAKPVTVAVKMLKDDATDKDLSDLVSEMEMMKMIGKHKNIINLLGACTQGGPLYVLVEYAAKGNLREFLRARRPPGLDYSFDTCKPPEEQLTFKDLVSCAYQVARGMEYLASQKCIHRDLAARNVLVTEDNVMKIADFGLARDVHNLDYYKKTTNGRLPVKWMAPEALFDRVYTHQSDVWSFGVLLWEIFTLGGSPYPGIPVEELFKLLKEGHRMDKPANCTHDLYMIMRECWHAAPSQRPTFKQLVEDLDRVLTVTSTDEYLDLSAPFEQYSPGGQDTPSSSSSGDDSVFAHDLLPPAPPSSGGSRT
# Chain of SIK1 (human) (P57059 whole entry, looked up): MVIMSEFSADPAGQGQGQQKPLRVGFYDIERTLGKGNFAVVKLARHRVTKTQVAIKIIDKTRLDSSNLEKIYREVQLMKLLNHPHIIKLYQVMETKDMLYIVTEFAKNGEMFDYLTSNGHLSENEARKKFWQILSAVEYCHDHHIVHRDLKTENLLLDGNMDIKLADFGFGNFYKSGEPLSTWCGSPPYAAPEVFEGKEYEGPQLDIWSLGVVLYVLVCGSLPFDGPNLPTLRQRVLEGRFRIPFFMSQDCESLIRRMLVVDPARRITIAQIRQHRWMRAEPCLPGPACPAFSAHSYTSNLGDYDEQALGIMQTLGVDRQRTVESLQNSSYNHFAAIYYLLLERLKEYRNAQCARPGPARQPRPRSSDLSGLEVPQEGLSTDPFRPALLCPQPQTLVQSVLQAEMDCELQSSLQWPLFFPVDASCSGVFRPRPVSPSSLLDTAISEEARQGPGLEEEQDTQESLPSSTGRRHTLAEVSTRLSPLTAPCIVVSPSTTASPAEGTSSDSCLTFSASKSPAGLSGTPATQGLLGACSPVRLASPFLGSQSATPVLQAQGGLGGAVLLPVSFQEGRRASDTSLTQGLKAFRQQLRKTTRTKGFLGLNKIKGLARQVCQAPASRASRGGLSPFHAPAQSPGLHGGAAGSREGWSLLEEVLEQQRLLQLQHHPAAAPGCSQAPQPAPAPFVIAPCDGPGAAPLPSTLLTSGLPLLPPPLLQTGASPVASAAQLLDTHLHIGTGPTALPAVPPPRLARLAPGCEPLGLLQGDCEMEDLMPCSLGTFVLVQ
# Chain of ADCK3 (human) (Q8NI60 whole entry, looked up): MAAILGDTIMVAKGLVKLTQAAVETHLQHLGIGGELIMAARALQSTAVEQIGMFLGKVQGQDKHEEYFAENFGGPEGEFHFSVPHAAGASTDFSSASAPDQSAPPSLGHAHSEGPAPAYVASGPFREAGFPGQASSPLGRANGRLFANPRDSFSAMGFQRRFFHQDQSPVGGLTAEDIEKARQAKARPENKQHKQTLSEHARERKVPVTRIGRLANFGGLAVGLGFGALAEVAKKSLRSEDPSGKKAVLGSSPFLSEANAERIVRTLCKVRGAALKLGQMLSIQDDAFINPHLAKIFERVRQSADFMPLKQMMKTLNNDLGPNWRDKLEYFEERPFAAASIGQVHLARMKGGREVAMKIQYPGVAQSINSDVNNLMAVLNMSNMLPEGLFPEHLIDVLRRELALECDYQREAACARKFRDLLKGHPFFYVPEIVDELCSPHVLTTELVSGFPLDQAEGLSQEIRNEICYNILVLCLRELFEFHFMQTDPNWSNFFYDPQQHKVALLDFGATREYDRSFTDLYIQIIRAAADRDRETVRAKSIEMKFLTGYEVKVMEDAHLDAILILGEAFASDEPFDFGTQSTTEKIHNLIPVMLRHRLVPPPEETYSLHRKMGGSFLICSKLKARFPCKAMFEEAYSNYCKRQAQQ
# Chain of FGFR4 (human) (P22455 whole entry, looked up): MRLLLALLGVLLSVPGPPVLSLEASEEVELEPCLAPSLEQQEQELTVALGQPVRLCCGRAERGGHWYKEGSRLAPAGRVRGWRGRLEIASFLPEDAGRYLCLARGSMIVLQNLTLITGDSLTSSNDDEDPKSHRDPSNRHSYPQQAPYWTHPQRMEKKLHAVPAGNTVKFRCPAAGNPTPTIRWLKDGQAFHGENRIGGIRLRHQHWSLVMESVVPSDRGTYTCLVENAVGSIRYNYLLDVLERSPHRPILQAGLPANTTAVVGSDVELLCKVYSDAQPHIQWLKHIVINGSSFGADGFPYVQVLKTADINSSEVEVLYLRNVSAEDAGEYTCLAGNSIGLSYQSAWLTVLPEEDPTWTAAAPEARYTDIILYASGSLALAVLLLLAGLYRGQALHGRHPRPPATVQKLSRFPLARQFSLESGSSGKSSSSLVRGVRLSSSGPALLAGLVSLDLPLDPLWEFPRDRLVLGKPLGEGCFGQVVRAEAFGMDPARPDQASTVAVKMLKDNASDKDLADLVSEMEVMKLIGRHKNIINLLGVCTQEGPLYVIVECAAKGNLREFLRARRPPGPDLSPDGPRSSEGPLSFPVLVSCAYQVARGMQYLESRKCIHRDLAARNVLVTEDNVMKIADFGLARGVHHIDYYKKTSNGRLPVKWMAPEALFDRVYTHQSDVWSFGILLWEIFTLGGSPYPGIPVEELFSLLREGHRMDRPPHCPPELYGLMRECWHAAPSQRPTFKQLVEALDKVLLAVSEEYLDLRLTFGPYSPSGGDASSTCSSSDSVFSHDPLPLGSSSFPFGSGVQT
smiles,measurement,setting,value
COc1cc(N2CCN(C)CC2)ccc1Nc1ncc2c(n1)Nc1ccccc1NC2=O,"kinase still bound, per cent of control",PAK3 (human),82%
same,"kinase still bound, per cent of control",ANKK1 (human),82%
same,"kinase still bound, per cent of control",[1],50%
same,"kinase still bound, per cent of control",RPS6KA3 KD1 (human),72%
same,"kinase still bound, per cent of control",KDR (human),74%
same,"kinase still bound, per cent of control",PRKAA2 (human),84%
same,"kinase still bound, per cent of control",MAPK4 (human),99%
same,"kinase still bound, per cent of control",PRKACA (human),100%
same,"kinase still bound, per cent of control",EIF2AK2 (human),59%
same,"kinase still bound, per cent of control",CDC2L2 (human),100%
same,"kinase still bound, per cent of control",MST4 (human),67%
same,"kinase still bound, per cent of control",PDGFRA (human),91%
same,"kinase still bound, per cent of control",NEK9 (human),87%
same,"kinase still bound, per cent of control",MET (human),82%
same,"kinase still bound, per cent of control",INSRR (human),41%
same,"kinase still bound, per cent of control",TNK2 (human),56%
same,"kinase still bound, per cent of control",MAP3K12 (human),100%
same,"kinase still bound, per cent of control",ABL2 (human),79%
same,"kinase still bound, per cent of control",SLK (human),100%
same,"kinase still bound, per cent of control",DCLK1 (human),59%
same,"kinase still bound, per cent of control",SIK1 (human),27%
same,"kinase still bound, per cent of control",ROCK2 (human),48%
same,"kinase still bound, per cent of control",NUAK2 (human),71%
same,"kinase still bound, per cent of control",PRKCD (human),100%
same,"kinase still bound, per cent of control",NEK1 (human),95%
same,"kinase still bound, per cent of control",GSK3B (human),53%
same,"kinase still bound, per cent of control",MAPK3 (human),93%
same,"kinase still bound, per cent of control",[2],72%
same,"kinase still bound, per cent of control",MLTK (human),100%
same,"kinase still bound, per cent of control",EPHA8 (human),80%
same,"kinase still bound, per cent of control",CDK11A (human),82%
same,"kinase still bound, per cent of control",ADCK3 (human),100%
same,"kinase still bound, per cent of control",EPHA6 (human),100%
same,"kinase still bound, per cent of control",CSF1R (human),75%
same,"kinase still bound, per cent of control",FGFR3 (human),97%
same,"kinase still bound, per cent of control",ULK3 (human),95%
same,"kinase still bound, per cent of control",LYN (human),77%
same,"kinase still bound, per cent of control",PAK1 (human),82%
same,"kinase still bound, per cent of control",YES1 (human),68%
same,"kinase still bound, per cent of control",FGFR4 (human),100%
same,"kinase still bound, per cent of control",PLK3 (human),83%
same,"kinase still bound, per cent of control",MAPK12 (human),81%
COc1cc(N2CCC(O)CC2)ccc1Nc1ncc2c(n1)N1CCc3cccc(c31)C(=O)N2C,"kinase still bound, per cent of control",PAK3 (human),58%
same,"kinase still bound, per cent of control",ANKK1 (human),100%
same,"kinase still bound, per cent of control",[1],100%
same,"kinase still bound, per cent of control",RPS6KA3 KD1 (human),55%
same,"kinase still bound, per cent of control",KDR (human),79%
same,"kinase still bound, per cent of control",PRKAA2 (human),100%
same,"kinase still bound, per cent of control",MAPK4 (human),100%
same,"kinase still bound, per cent of control",PRKACA (human),100%
same,"kinase still bound, per cent of control",EIF2AK2 (human),48%
same,"kinase still bound, per cent of control",CDC2L2 (human),100%
same,"kinase still bound, per cent of control",MST4 (human),99%
same,"kinase still bound, per cent of control",PDGFRA (human),98%
same,"kinase still bound, per cent of control",NEK9 (human),77%
same,"kinase still bound, per cent of control",MET (human),90%
same,"kinase still bound, per cent of control",INSRR (human),78%
same,"kinase still bound, per cent of control",TNK2 (human),23%
same,"kinase still bound, per cent of control",MAP3K12 (human),71%
same,"kinase still bound, per cent of control",ABL2 (human),96%
same,"kinase still bound, per cent of control",SLK (human),95%
same,"kinase still bound, per cent of control",DCLK1 (human),4.5%
same,"kinase still bound, per cent of control",SIK1 (human),88%
same,"kinase still bound, per cent of control",ROCK2 (human),86%
same,"kinase still bound, per cent of control",NUAK2 (human),60%
same,"kinase still bound, per cent of control",PRKCD (human),100%
same,"kinase still bound, per cent of control",NEK1 (human),60%
same,"kinase still bound, per cent of control",GSK3B (human),91%
same,"kinase still bound, per cent of control",MAPK3 (human),99%
same,"kinase still bound, per cent of control",[2],100%
same,"kinase still bound, per cent of control",MLTK (human),100%
same,"kinase still bound, per cent of control",EPHA8 (human),92%
same,"kinase still bound, per cent of control",CDK11A (human),100%
same,"kinase still bound, per cent of control",ADCK3 (human),78%
same,"kinase still bound, per cent of control",EPHA6 (human),82%
same,"kinase still bound, per cent of control",CSF1R (human),67%
same,"kinase still bound, per cent of control",FGFR3 (human),100%
same,"kinase still bound, per cent of control",ULK3 (human),100%
same,"kinase still bound, per cent of control",LYN (human),92%
same,"kinase still bound, per cent of control",PAK1 (human),83%
same,"kinase still bound, per cent of control",YES1 (human),99%
same,"kinase still bound, per cent of control",FGFR4 (human),56%
same,"kinase still bound, per cent of control",PLK3 (human),0.75%
same,"kinase still bound, per cent of control",MAPK12 (human),67%
